Experimental data taken from US20120308608A1 (priority 2011, published 2012).
“Also recorded” adds a separate entry of the source.

Assays:
[1] = system: IFN beta promoter (MDCK-IFNb-Luc); type: cell-based, canine
[2] = system: IFN production by MDCK cells; type: cell-based, canine
[3] = system: Influenza A/PR/8/34 virus; type: cell-based
[4] = molecular target: influenza virus replication machinery (PB1, PB2, PA, nucleocapsid protein of A/WSN/33) (Influenza A virus, UniProt P03427+P03430+P15659+P15682); assay: Influenza virus mini-genome assay; type: cell-based, influenza virus strains A/WSN/33; conditions: A549 cells; increasing ASN2 concentrations
[5] = system: Influenza A/Vietnam/1203/2004 (H5N1) virus; type: cell-based; conditions: A549 cells; multiplicity of 0.01 pfu; 2 days
Influenza A/WSN/33 virus = type: cell-based

| Compound | induction of IFNb-luc reporter expression [1] | IFN production (IFN bioassay, VSV-GFP growth) [2] | A/PR/8/34 virus replication (HA titer) [3] | mini-genome luciferase activity [4] | A/Vietnam/1203/2004 (H5N1) virus replication [5] | A/WSN/33 virus replication (HA titer) (Influenza A/WSN/33 virus) |
| --- | --- | --- | --- | --- | --- | --- |
| NS(=O)(=O)c1ccc2nc3c(nc2c1)-c1cccc2cccc-3c12 [ENA51] | induces IFN independent of virus |  |  |  |  |  |
| N=C(N/N=C1/C(=O)N(Cc2ccccc2)c2ccccc21)SCC(=O)Nc1ccccc1 [ASN2] | requires virus infection in order to induce IFN in the reporter assay; also recorded: depends on influenza A/PR/8/34 virus infection to induce IFN | able to induce biologically relevant levels of IFN once the Compound-treated cells are also infected with A/PR/8/34; also recorded: able to induce the production of IFN only if the treated cells are infected with influenza A/PR/8/34 virus | able to attenuate both A/PR/8/34 and A/WSN/33 virus replication in a dose-dependent manner; also recorded: attenuated | decreased with increasing concentrations; also recorded: inhibited | antiviral activity; also recorded: attenuated | able to attenuate both A/PR/8/34 and A/WSN/33 virus replication in a dose-dependent manner; also recorded: attenuated |
